Laboratory results as given in US20230279002A1, “Polymorphs of Crystalline Forms of 3,10-dimethoxy-5,8,13,13a-tetrahydro-6H-isoquinolino[3,2-a]isoquinolin-9-yl 3-fluorobenzenesulfonate and Salts Thereof” (CVI Pharmaceuticals Limited, priority 2020, published 2023).

What was measured:
Type in all cases: physicochemical
[1] = Solid stability at 40° C./0% RH (closed) and 40° C./75% RH (open), HPLC; conditions: for 0 day % remaining / 7 day % remaining / 21 day % remaining: solid
Procedure: (§1) Solid stability: 5 mg of 2a was weighed into scintillation vials sealed properly and stored at 40° C./0% RH(closed), 40° C./75% RH(open) under dark conditions to avoid the effect of light on stability. Samples were collected at day 0, 5 and 10 and analyzed by HPLC.
Solid stability: 5 mg of compound was weighed into vials sealed properly and stored at 40° C./0% RH (closed), 40° C./75% RH (open) under dark conditions to avoid the effect of light. Samples were analyzed by HPLC at days 0, 7, and 21.
as §1, with “stability of compound 1a:” for “stability:”, “compound were accurately” for “of 2a was”, “condition” for “conditions”, “should be” for “were”, “10 days” for “10”

[2] = DVS (Dynamic Vapor Sorption) moisture sorption/desorption, hygroscopicity classification
Procedure: DVS (Dynamic Vapor Sorption): Around 10-20 mg of samples were used to test its moisture sorption/desorption profiles at 25° C. under 0%˜95%˜0% relative humidity (RH) cycle using dm/dt: 0.01%/min equilibrium and a measurement step of 5% RH.
Hygroscopicity Classification: Typical %-moisture gain as a function of increased RH was determined by DVS. Samples went through a dynamic test isothermally at 25° C. The test was divided into 2 processes, one was absorption process, the other was desorption process. RH ranged from 0% to 95% with 5% RH for each step, and when dm/dt<=0.01%, it was assumed the water sorption/desorption equilibrium is reached.

[3] = Solution stability in 0.1 N HCl, pH 4.5 buffer and pH 6.8 buffer at 25° C. and 37° C., HPLC
Procedure: Solution stability: A stock solution of compound (1.0 mg/mL) in MeOH was diluted with 0.1 N HCl, pH 4.5 buffer (acetate) and pH 6.8 buffer to reach constant ionic strength of 0.15 M and the same final concentration (50 μg/mL, 40% MeOH).
A stock solution of 1b and 3b (1.0 mg/mL) in MeOH was diluted with pH 6.8 buffer to reach constant ionic strength of 0.15M and the same final concentration (25 μg/mL, 40% […]).
The solutions were stored at 25° C. and 37° C.

[4] = Solubility in SGF, FaSSIF, FeSSIF, 0.1M HCl, pH 4.5 and pH 6.8 aqueous at 25° C. (HPLC); conditions: for Solubility conc.(mg/ml): solubility of salts transformed to freebase; for Final pH: solubility test
Procedure: Solubility: Excess drug substance was equilibrated with SGF (Simulated Gastric Fluid), FaSSIF (Simulated Small Intestinal Fluid under Fasted state), FeSSIF (Simulated Small Intestinal Fluid under Fed state), 0.1M HCl, pH 4.5 aqueous, and pH 6.8 aqueous at 25° C. After stirring for 20˜24 h, each sample was filtered, diluted appropriately and analyzed by HPLC. The experiment was terminated once a solubility target of 5 mg/mL was reached.

Solid-state stability (HPLC) ([1]; 40° C./0% RH (closed) and 40° C./75% RH (open), dark, up to 3 weeks): substantially stable | 0 day % remaining ([1]; 40° C. (0% RH, closed)): 100.0% | 7 day % remaining ([1]; 40° C. (0% RH, closed)): 99.1% | 21 day % remaining ([1]; 40° C. (0% RH, closed)): 99.2% | 0 day % remaining ([1]; 40° C./75% RH (open)): 100.0% | 7 day % remaining ([1]; 40° C./75% RH (open)): 100.3% | 21 day % remaining ([1]; 40° C./75% RH (open)): 99.8% | Hygroscopicity classification by DVS ([2]; 25 °C): hygroscopic | Change In Mass (%) - ref, Desorption ([2]; Cycle 1, target RH 0.0%): 0.05% | Change In Mass (%) - ref, Sorption ([2]; Cycle 1, target RH 0.0%): 0.00% | Change In Mass (%) - ref, Desorption ([2]; Cycle 1, target RH 5.0%): 0.26% | Change In Mass (%) - ref, Hysteresis ([2]; Cycle 1, target RH 5.0%): 0.23% | Change In Mass (%) - ref, Sorption ([2]; Cycle 1, target RH 5.0%): 0.03% | Change In Mass (%) - ref, Desorption ([2]; Cycle 1, target RH 10.0%): 0.46% | Change In Mass (%) - ref, Hysteresis ([2]; Cycle 1, target RH 10.0%): 0.18% | Change In Mass (%) - ref, Sorption ([2]; Cycle 1, target RH 10.0%): 0.28% | Change In Mass (%) - ref, Desorption ([2]; Cycle 1, target RH 15.0%): 0.61% | Change In Mass (%) - ref, Hysteresis ([2]; Cycle 1, target RH 15.0%): 0.29% | Change In Mass (%) - ref, Sorption ([2]; Cycle 1, target RH 15.0%): 0.32% | Change In Mass (%) - ref, Desorption ([2]; Cycle 1, target RH 20.0%): 4.13% | Change In Mass (%) - ref, Hysteresis ([2]; Cycle 1, target RH 20.0%): 3.79% | Change In Mass (%) - ref, Sorption ([2]; Cycle 1, target RH 20.0%): 0.34% | Change In Mass (%) - ref, Desorption ([2]; Cycle 1, target RH 25.0%): 8.89% | Change In Mass (%) - ref, Hysteresis ([2]; Cycle 1, target RH 25.0%): 8.50% | Change In Mass (%) - ref, Sorption ([2]; Cycle 1, target RH 25.0%): 0.39% | Change In Mass (%) - ref, Desorption ([2]; Cycle 1, target RH 30.0%): 9.08% | Change In Mass (%) - ref, Hysteresis ([2]; Cycle 1, target RH 30.0%): 1.62% | Change In Mass (%) - ref, Sorption ([2]; Cycle 1, target RH 30.0%): 7.46% | Change In Mass (%) - ref, Desorption ([2]; Cycle 1, target RH 35.0%): 9.14% | Change In Mass (%) - ref, Hysteresis ([2]; Cycle 1, target RH 35.0%): 0.21% | Change In Mass (%) - ref, Sorption ([2]; Cycle 1, target RH 35.0%): 8.93% | Change In Mass (%) - ref, Desorption ([2]; Cycle 1, target RH 40.0%): 9.18% | Change In Mass (%) - ref, Hysteresis ([2]; Cycle 1, target RH 40.0%): 0.13% | Change In Mass (%) - ref, Sorption ([2]; Cycle 1, target RH 40.0%): 9.06% | Change In Mass (%) - ref, Desorption ([2]; Cycle 1, target RH 45.0%): 9.26% | Change In Mass (%) - ref, Hysteresis ([2]; Cycle 1, target RH 45.0%): 0.16% | Change In Mass (%) - ref, Sorption ([2]; Cycle 1, target RH 45.0%): 9.10% | Change In Mass (%) - ref, Desorption ([2]; Cycle 1, target RH 50.0%): 10.73% | Change In Mass (%) - ref, Hysteresis ([2]; Cycle 1, target RH 50.0%): 1.59% | Change In Mass (%) - ref, Sorption ([2]; Cycle 1, target RH 50.0%): 9.14% | Change In Mass (%) - ref, Desorption ([2]; Cycle 1, target RH 55.0%): 10.99% | Change In Mass (%) - ref, Hysteresis ([2]; Cycle 1, target RH 55.0%): 1.77% | Change In Mass (%) - ref, Sorption ([2]; Cycle 1, target RH 55.0%): 9.22% | Change In Mass (%) - ref, Desorption ([2]; Cycle 1, target RH 60.0%): 11.23% | Change In Mass (%) - ref, Hysteresis ([2]; Cycle 1, target RH 60.0%): 1.82% | Change In Mass (%) - ref, Sorption ([2]; Cycle 1, target RH 60.0%): 9.41% | Change In Mass (%) - ref, Desorption ([2]; Cycle 1, target RH 65.0%): 11.50% | Change In Mass (%) - ref, Hysteresis ([2]; Cycle 1, target RH 65.0%): 0.36% | Change In Mass (%) - ref, Sorption ([2]; Cycle 1, target RH 65.0%): 11.14% | Change In Mass (%) - ref, Desorption ([2]; Cycle 1, target RH 70.0%): 11.84% | Change In Mass (%) - ref, Hysteresis ([2]; Cycle 1, target RH 70.0%): 0.04% | Change In Mass (%) - ref, Sorption ([2]; Cycle 1, target RH 70.0%): 11.79% | Change In Mass (%) - ref, Desorption ([2]; Cycle 1, target RH 75.0%): 12.27% | Change In Mass (%) - ref, Hysteresis ([2]; Cycle 1, target RH 75.0%): 0.04% | Change In Mass (%) - ref, Sorption ([2]; Cycle 1, target RH 75.0%): 12.23% | Change In Mass (%) - ref, Desorption ([2]; Cycle 1, target RH 80.0%): 12.85% | Change In Mass (%) - ref, Hysteresis ([2]; Cycle 1, target RH 80.0%): 0.05% | Change In Mass (%) - ref, Sorption ([2]; Cycle 1, target RH 80.0%): 12.79% | Change In Mass (%) - ref, Desorption ([2]; Cycle 1, target RH 85.0%): 13.71% | Change In Mass (%) - ref, Hysteresis ([2]; Cycle 1, target RH 85.0%): 0.08% | Change In Mass (%) - ref, Sorption ([2]; Cycle 1, target RH 85.0%): 13.64% | Change In Mass (%) - ref, Desorption ([2]; Cycle 1, target RH 90.0%): 15.23% | Change In Mass (%) - ref, Hysteresis ([2]; Cycle 1, target RH 90.0%): 0.15% | Change In Mass (%) - ref, Sorption ([2]; Cycle 1, target RH 90.0%): 15.08% | Change In Mass (%) - ref, Desorption ([2]; Cycle 1, target RH 95.0%): 17.97% | Change In Mass (%) - ref, Sorption ([2]; Cycle 1, target RH 95.0%): 17.97% | moisture picked up (DVS) ([2]; at 80% RH, 25 °C): ~13% | moisture picked up (DVS) ([2]; at 95% RH, 25 °C): ~18% | Remaining % ([3]; 25° C., 0.1N HCL, 0 h, 50 μg/mL, 40% MeOH): 100.00% | Remaining % ([3]; 25° C., 0.1N HCL, 3 h, 50 μg/mL, 40% MeOH): 100.31% | Remaining % ([3]; 25° C., 0.1N HCL, 24 h, 50 μg/mL, 40% MeOH): 100.62% | Solution stability ([3]; 25° C., 24 h, 0.1 N HCl, pH 4.5 buffer and pH 6.8 buffer): stable | Remaining % ([3]; 25° C., pH 4.5, 0 h, 50 μg/mL, 40% MeOH): 100.00% | Remaining % ([3]; 25° C., pH 4.5, 3 h, 50 μg/mL, 40% MeOH): 100.00% | Remaining % ([3]; 25° C., pH 4.5, 24 h, 50 μg/mL, 40% MeOH): 100.08% | Remaining % ([3]; 25° C., pH 6.8*, 0 h, final conc. 25 μg/mL with 40% DMSO): 100.00% | Remaining % ([3]; 25° C., pH 6.8*, 3 h, final conc. 25 μg/mL with 40% DMSO): 99.64% | Remaining % ([3]; 25° C., pH 6.8*, 24 h, final conc. 25 μg/mL with 40% DMSO): 99.64% | Remaining % ([3]; 37° C., 0.1N HCL, 0 h, 50 μg/mL, 40% MeOH): 100.00% | Remaining % ([3]; 37° C., 0.1N HCL, 3 h, 50 μg/mL, 40% MeOH): 99.92% | Remaining % ([3]; 37° C., 0.1N HCL, 24 h, 50 μg/mL, 40% MeOH): 100.92% | Solution stability ([3]; 37° C., 24 h, 0.1N HCl, pH 4.5 buffer): stable | Solution stability ([3]; 37° C., 24 h, pH 6.8 buffer): decomposed | Remaining % ([3]; 37° C., pH 4.5, 0 h, 50 μg/mL, 40% MeOH): 100.00% | Remaining % ([3]; 37° C., pH 4.5, 3 h, 50 μg/mL, 40% MeOH): 100.39% | Remaining % ([3]; 37° C., pH 4.5, 24 h, 50 μg/mL, 40% MeOH): 100.47% | Remaining % ([3]; 37° C., pH 6.8*, 0 h, final conc. 25 μg/mL with 40% DMSO): 100.00% | Remaining % ([3]; 37° C., pH 6.8*, 3 h, final conc. 25 μg/mL with 40% DMSO): 99.22% | Remaining % ([3]; 37° C., pH 6.8*, 24 h, final conc. 25 μg/mL with 40% DMSO): 85.89% | Solubility conc.(mg/ml) ([4]; 0.1N HCL): 0.261 mg/mL | Solubility conc.(mg/ml) ([4]; FaSSIF): 0.009 mg/mL | Solubility conc.(mg/ml) ([4]; FeSSIF): 0.010 mg/mL | Solubility conc.(mg/ml) ([4]; SGF): 1.828 mg/mL | Solubility conc.(mg/ml) ([4]; Water): 0.145 mg/mL | Solubility conc.(mg/ml) ([4]; pH 4.5 Acetate Buffer (USP)): 0.012 mg/mL | Solubility conc.(mg/ml) ([4]; pH 6.8 Phosphate Buffer (USP)): 0.014 mg/mL | Final pH ([4]; 0.1N HCL): 1.56 | Final pH ([4]; FaSSIF): 6.04 | Final pH ([4]; FeSSIF): 4.87 | Final pH ([4]; SGF): 1.55 | Final pH ([4]; Water): 2.71 | Final pH ([4]; pH 4.5 Acetate Buffer (USP)): 4.42 | Final pH ([4]; pH 6.8 Phosphate Buffer (USP)): 6.64
Structure (SMILES): COc1ccc2c(c1)CCN1Cc3c(ccc(OC)c3OS(=O)(=O)c3cccc(F)c3)C[C@@H]21 [Compound 3b]
